Experimental data taken from patent US6632806B1, “Neurologically-active compounds” (The University of Sydney, priority 1997, dated 2003).
Values joined by “and” are separate entries in the source; they are usually repeats but may differ in a detail not shown here. Equal entries are not always repeated. Where two headings read alike, the source gives them in different places. Marks after values point to notes of the source that are not given here.

Assays:
GABAA [1] = target: T1, GABAA; conditions: [3H]muscimol binding (Froestl et al, 1995a; 1995b), cited from earlier work
T1 construct: Activity at GABAA; other: Woodward et al, 1993; GABAA Kb; other: Ragozzino et al (1996); other: PMPA; source not given, column fo

GABAC receptors = conditions: Woodward et al, 1993, cited from earlier work; for Kb: read-out: KB (antagonist)
[2] = target: human r1 receptors (GABAC receptors) (Homo sapiens, UniProt P24046); experiment: Two-electrode voltage clamp recording of human r1 GABAC receptors expressed in Xenopus oocytes; conditions: for IC50: IC50 (concentration that inhibits 50% of the response produced by 1 μM GABA), 1 μM GABA; for Mode of antagonism: Schild analysis; for Effect as agonist or antagonist at GABAC receptors: screened at 100 μM
Sequence of human r1 receptors (GABAC receptors) (P24046 22-479): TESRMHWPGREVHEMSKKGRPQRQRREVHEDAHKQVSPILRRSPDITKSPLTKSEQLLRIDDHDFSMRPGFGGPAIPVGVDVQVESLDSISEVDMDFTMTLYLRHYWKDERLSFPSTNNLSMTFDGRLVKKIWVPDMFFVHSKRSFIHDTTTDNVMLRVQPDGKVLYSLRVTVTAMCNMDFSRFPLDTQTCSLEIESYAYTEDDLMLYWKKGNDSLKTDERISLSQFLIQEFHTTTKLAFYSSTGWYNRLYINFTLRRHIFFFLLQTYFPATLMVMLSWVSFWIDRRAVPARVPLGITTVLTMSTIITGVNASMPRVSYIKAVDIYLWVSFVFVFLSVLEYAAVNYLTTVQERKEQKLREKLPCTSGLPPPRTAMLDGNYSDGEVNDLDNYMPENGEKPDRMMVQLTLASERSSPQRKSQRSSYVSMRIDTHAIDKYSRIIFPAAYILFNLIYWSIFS
Procedure: The plasmid was linearized with XbaI and cRNA made using the “Message Machine” kit from Ambion Inc. (Austin, Tex., USA). 50 ng of cRNA was injected into defolliculated Stage V Xenopus oocytes. Two to seven days later, receptor activity was measured by two-electrode voltage clamp recording, using a Geneclamp 500 amplifier (Axon Instruments Inc., Foster City, Calif., USA) and a MacLab 2e recorder (ADInstruments, Sydney, NSW, Australia). […] For receptor activation measurements, the indicated concentrations of agonist and antagonist were added to ND96.

GABAA [3] = tested on: T1, GABAA; conditions: Na-independent [3H]GABA binding (Johnston et al, 1978); read-out: GABAA receptor affinity, IC50; cited from earlier work
human rho-2 receptors = human rho-2 receptors (Homo sapiens, UniProt P28476); experiment: Antagonist KB at human homo-oligomeric rho-2 GABAC receptors; assay type: cell-based; conditions: for Kb: human rho-2
Sequence of human rho-2 receptors (P28476 21-465): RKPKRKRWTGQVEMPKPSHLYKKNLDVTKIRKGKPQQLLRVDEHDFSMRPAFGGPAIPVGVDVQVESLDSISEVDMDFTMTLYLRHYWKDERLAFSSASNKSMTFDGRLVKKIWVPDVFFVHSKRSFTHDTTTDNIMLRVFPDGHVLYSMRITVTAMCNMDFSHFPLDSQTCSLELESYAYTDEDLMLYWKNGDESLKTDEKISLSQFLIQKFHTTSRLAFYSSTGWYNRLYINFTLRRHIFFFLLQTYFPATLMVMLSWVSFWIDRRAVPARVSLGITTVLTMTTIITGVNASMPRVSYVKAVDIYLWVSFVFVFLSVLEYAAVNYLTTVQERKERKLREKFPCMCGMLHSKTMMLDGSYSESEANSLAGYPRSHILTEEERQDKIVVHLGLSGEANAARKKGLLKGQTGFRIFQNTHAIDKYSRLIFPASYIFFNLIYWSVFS

chicks = experiment: Memory consolidation in chicks, anthranilate-coated bead discrimination; assay type: in vivo, chick
Procedure: This procedure trains each chick on anthranilate-coated red beads, which have a bitter taste. In the test, 120 min. after the initial exposure to the red bead each chick is presented with a blue and a red bead, and normally will avoid pecking at the red bead; the discrimination ratio measures how well it remembers to do this. Chicks trained on 100% anthranilate-coated beads produce a discrimination ratio better than 0.9, and drug-induced memory deficits can be detected in this group. However, chicks trained on 20% anthranilate-coated beads produce a discrimination ratio of around 0.6, and this group can be used to detect drug-induced memory enhancement. Drugs are delivered by two bilateral intracranial injections (10 μL each).

male Swiss mice = experiment: Elevated plus-maze memory test; assay type: in vivo
Procedure: In this assay mice are trained by placing them at the end of the open arm of the plus maze and allowing them to find the shelter of the closed arms. The time taken is measured as the ‘latency’. Immediately after the trial the mice are injected with the test drug or with a saline control. […]

GABAA [4] = tested on: T1, GABAA; conditions: Ragozzino et al (1996); cited from earlier work
GABAC (human r1) = target: T2, GABAC (human r1) (Homo sapiens, UniProt P24046); conditions: cited from earlier work
T2 construct: host or cells: Xenopus oocytes expressing human r1 mRNA
T2 sequence (P24046 22-479): as the sequence (P24046 22-479) above

GABAB [5] = target: T3, GABAB (Rattus norvegicus, UniProt Q9Z0U4); set-up: from tissue; host or cells: hippocampal slices (pyramidal neurons); conditions: bicuculline 20 μM; Ragozzino et al (1996); cited from earlier work
Target sequence in this assay (Q9Z0U4 20-960): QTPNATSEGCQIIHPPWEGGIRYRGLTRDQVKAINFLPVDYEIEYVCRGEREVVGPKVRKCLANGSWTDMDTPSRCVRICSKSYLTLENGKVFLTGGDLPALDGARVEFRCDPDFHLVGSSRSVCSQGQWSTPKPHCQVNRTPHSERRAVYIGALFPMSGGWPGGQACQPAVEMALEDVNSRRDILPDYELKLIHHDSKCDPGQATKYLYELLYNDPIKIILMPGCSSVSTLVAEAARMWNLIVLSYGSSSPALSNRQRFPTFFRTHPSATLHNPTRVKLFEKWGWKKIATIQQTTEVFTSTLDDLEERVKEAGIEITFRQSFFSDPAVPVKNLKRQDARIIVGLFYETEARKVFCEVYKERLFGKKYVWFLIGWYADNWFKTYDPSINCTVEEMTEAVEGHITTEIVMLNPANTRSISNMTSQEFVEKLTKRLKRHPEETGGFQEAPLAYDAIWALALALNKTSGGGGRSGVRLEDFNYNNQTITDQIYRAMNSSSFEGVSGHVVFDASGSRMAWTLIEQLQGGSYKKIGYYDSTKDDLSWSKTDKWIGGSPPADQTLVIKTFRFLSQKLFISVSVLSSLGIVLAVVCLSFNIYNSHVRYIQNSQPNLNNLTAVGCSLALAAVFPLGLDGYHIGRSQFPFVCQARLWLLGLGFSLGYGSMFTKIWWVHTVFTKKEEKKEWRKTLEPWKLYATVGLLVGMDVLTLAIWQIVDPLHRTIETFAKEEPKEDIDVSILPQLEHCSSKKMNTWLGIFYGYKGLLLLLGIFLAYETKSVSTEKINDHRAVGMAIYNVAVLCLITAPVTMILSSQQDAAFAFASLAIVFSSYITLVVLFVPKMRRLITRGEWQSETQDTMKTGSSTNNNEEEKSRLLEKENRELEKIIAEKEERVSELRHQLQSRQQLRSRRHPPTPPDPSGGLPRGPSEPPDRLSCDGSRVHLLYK
Target sequence in this assay (O88871 41-940 partner): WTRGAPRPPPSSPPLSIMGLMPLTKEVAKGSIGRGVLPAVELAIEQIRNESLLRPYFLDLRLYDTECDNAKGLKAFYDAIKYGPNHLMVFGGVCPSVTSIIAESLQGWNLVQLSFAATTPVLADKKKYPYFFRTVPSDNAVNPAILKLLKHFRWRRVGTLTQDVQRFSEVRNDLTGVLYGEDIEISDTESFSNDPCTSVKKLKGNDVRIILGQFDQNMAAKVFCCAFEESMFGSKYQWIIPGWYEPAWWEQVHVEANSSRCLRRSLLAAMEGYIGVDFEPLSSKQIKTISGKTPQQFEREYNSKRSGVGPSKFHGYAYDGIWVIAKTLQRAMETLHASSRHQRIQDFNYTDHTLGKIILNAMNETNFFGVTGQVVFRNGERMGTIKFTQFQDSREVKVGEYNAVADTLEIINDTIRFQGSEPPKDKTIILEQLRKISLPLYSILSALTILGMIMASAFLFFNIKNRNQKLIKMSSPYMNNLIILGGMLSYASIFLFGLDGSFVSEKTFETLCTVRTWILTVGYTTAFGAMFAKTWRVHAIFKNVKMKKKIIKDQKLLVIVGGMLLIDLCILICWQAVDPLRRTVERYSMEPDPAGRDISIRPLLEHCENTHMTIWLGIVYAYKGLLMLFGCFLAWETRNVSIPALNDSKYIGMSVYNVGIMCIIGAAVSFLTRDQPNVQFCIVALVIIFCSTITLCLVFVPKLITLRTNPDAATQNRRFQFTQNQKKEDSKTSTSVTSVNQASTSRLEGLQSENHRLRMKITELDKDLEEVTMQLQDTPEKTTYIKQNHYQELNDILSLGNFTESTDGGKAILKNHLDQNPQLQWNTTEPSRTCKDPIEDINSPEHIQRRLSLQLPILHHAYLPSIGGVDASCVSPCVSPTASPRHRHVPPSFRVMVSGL

GABAA [6] = target: T1, GABAA; experiment: Inhibition of [3H]muscimol binding using rat cortical membranes; conditions: PMPA; source not given, column footnote is [3H]muscimol binding; read-out: GABAA receptor affinity, IC50
GABAB [7] = target: T3, GABAB; experiment: Frequency of spontaneous discharges in neocortical slices, grease-gap recording; set-up: from tissue; host or cells: rat cortical membranes / neocortical slices; values largely from the literature; conditions: read-out: GABAB receptor affinity
Target sequence in this assay (Q9Z0U4 17-960 limits assumed): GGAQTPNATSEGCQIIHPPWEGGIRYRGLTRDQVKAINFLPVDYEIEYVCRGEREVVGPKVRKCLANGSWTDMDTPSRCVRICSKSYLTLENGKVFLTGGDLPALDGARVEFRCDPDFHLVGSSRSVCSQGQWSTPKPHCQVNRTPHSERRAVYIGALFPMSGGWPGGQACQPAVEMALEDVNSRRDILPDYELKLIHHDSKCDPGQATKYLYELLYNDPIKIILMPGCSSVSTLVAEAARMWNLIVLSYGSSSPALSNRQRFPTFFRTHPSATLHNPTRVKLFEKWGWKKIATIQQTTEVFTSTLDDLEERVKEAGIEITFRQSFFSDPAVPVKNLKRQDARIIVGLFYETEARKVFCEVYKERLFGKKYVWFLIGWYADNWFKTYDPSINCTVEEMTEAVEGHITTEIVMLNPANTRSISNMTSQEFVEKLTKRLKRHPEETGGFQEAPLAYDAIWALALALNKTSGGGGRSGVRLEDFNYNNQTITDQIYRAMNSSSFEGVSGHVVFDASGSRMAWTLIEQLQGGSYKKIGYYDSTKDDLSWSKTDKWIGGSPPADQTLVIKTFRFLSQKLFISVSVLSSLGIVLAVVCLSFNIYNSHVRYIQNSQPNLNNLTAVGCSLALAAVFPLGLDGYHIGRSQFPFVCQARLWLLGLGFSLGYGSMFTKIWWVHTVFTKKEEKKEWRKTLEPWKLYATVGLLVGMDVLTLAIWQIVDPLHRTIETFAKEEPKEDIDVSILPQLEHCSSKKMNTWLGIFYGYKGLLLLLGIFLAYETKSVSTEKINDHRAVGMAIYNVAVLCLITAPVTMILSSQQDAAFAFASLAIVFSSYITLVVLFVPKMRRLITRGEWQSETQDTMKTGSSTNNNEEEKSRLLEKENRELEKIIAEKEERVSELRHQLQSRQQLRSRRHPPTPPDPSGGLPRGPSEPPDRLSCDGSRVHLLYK
Target sequence in this assay (O88871 41-940 partner): as the sequence (O88871 41-940 partner) above

[8] = Murata et al, 1996, Ragozzino et al

## CP(=O)(O)CCCN [CGP35024, (3-aminopropyl)methylphosphinic acid]
GABAA [1]
  GABAA receptor affinity, IC50: inactive at 10^k
GABAC receptors
  Kb: 0.8 µM
[2]
  Activation of Cl− channel current by compound on its own: did not activate any current on their own
  Kb: 0.58 ± 0.14 µM
  Slope of Schild Plot: 1.14
  nH (Hill Coefficient): 1.8 ± 0.1
  IC50: 0.75 ± 0.07 µM
  Mode of antagonism: competitive antagonists
[2]; [Antagonist] 3 μM
  nH of GABA curve in the presence of antagonist: 2.3 ± 0.1
[2]; [Antagonist] 10 μM
  nH of GABA curve in the presence of antagonist: 2.2 ± 0.2
[2]; [Antagonist] 30 μM
  nH of GABA curve in the presence of antagonist: 1.9 ± 0.2

## NCCCC(=O)O [GABA, γ-Aminobutyric acid]
[2]
  Activation of Cl− channel current by compound on its own: activated the Cl^− channel
  nH (Hill Coefficient): 2.6 ± 0.2

## NC/C=C\[PH](=O)O [CGP70522, [(Z)-3-aminopropen-1-yl]phosphinic acid]
GABAA [1]; read-out: GABAA receptor affinity, IC50
  IC50: 6.6 µM
[2]
  Activation of Cl− channel current by compound on its own: did not activate any current on their own
  IC50: > 300 µM
  Mode of antagonism: competitive antagonists
[2]; 300 μM, FIG. 1
  Activation of the receptor by compound alone: do not activate the receptor
  Effect on GABA response when co-applied with GABA (1 μM): the GABA response is blocked or reduced

## NC/C=C\C(=O)O [CACA, cis-4-aminocrotonic acid]
GABAA [3]
  IC50: 25 µM
GABAC receptors; Johnston, 1996b, read-out: KD (agonist)
  Kd: 74 µM
[2]
  Activation of Cl− channel current by compound on its own: activated the Cl^− channel
  nH (Hill Coefficient): 2.2 ± 0.3
[2]; EC50 (effective dose that activates 50% of the maximal current), r1 receptors in Xenopus oocytes, clamped at −60 mV
  EC50: 37.4 µM and 37 µM
[2]; maximal dose
  Maximal dose current as % of the maximal GABA activated current: 75%

## NCCCP(=O)(O)O [3-APA, 3-aminopropylphosphonic acid]
GABAC receptors
  Kb: 10 µM

## CCOC(OCC)P(=O)(O)CCCN [CGP35348, 3-aminopropyl(diethoxymethyl)phosphinic acid]
[2]
  Effect as agonist or antagonist at GABAC receptors: no effect as either agonists or antagonists

## CP(=O)(O)C1=CCNCC1 [TPMPA]
Human rho-2 receptors; human homo-oligomeric receptors
  Potency at blocking rho-2 receptors relative to rho-1 GABAC receptors: an order of magnitude less potent
Human rho-2 receptors
  Kb: 15.6 ± 1.6 µM
chicks; 30 μM, intracranial injection, chicks trained with 20% anthranilate
  Effect on memory (discrimination ratio): enhances memory
chicks; in vivo
  Time of injection after training giving optimum effect: ≤ 2.5 min
Male Swiss mice; 50 mg/Kg, repeat experiment, tested only after 14 days, Swiss mice from a different source
  Effect on latency: significantly reduced latency
Male Swiss mice; 200 mg/Kg, first experiment, 14 day test
  Effect on latency: significantly reduces the latency
GABAA [4]
  Kb: 320 µM
GABAC (human r1); Murata et al, 1996, Ragozzino et al, 1996, read-out: KD, GABAC receptor antagonist activity
  Kd: 2.1 µM
GABAC (human r1); [8]
  Selectivity as antagonist for GABAC receptors over GABAB receptors: more than 100 fold
  Selectivity at GABAC receptors over GABAA receptors: 500 fold
GABAC (human r1); data from Murata et al, 1996
  Kb: 2.1 µM
GABAC (human r1); read-out: Concentration producing 50% inhibition of GABAC receptor activation
  IC50: 2.1 µM
GABAB [5]
  EC50: ~500 µM
[2]
  Kb: 2 ± 0.4 µM

## CP(=O)(O)C1CCNCC1 [PMPA, piperidine-4-(methyl)phosphinic acid]
Human rho-2 receptors
  Kb: 4.2 ± 0.2 µM
GABAA [6]
  IC50: > 100 µM
[2]
  Kb: 6 ± 1.2 µM
  IC50: 6 µM
GABAB [7]
  IC50: > 1000 µM

## NCCCP(=O)(O)CC1CCCCC1 [CGP46381, 3-aminopropyl(cyclohexylmethyl)phosphinic acid]
[2]
  Effect as agonist or antagonist at GABAC receptors: no effect as either agonists or antagonists
